Assay results reported in PubChem BioAssay AID1259407 (Chemical Carcinogenesis Research Information System (CCRIS), 2018).
The source made the active and inactive calls. No rule for the calls is given here.

Test system: CCRIS mutagenicity, Ames/micronucleus/aberration tests
Test: CCRIS mutagenicity studies

Measured: mutagenic call

CCN(CC)c1ccccc1
inactive: Test System: AMES SALMONELLA TYPHIMURIUM, Strain/Indicator: TA97, Metabolic Activation: HAMSTER, LIVER, S-9, AROCLOR 1254 (10 OR 30%), Method: PREINCUBATION inactive; negative | Test System: AMES SALMONELLA TYPHIMURIUM, Strain/Indicator: TA97, Metabolic Activation: NONE, Method: PREINCUBATION inactive; negative | Test System: AMES SALMONELLA TYPHIMURIUM, Strain/Indicator: TA97, Metabolic Activation: RAT, LIVER, S-9, AROCLOR 1254 (10 OR 30%), Method: PREINCUBATION inactive; negative | Test System: AMES SALMONELLA TYPHIMURIUM, Strain/Indicator: TA98, Metabolic Activation: HAMSTER, LIVER, S-9, AROCLOR 1254 (10 OR 30%), Method: PREINCUBATION inactive; negative | Test System: AMES SALMONELLA TYPHIMURIUM, Strain/Indicator: TA98, Metabolic Activation: HAMSTER, LIVER, S-9, PHENOBARBITAL AND BETA-NAPHTHOFLAVONE, Method: PREINCUBATION inactive; negative | Test System: AMES SALMONELLA TYPHIMURIUM, Strain/Indicator: TA98, Metabolic Activation: NONE, Method: PREINCUBATION inactive; negative | Test System: AMES SALMONELLA TYPHIMURIUM, Strain/Indicator: TA98, Metabolic Activation: RAT, LIVER, S-9, AROCLOR 1254 (10 OR 30%), Method: PREINCUBATION inactive; negative | Test System: AMES SALMONELLA TYPHIMURIUM, Strain/Indicator: TA100, Metabolic Activation: HAMSTER, LIVER, S-9, AROCLOR 1254 (10 OR 30%), Method: PREINCUBATION inactive; negative | Test System: AMES SALMONELLA TYPHIMURIUM, Strain/Indicator: TA100, Metabolic Activation: HAMSTER, LIVER, S-9, PHENOBARBITAL AND BETA-NAPHTHOFLAVONE, Method: PREINCUBATION inactive; negative | Test System: AMES SALMONELLA TYPHIMURIUM, Strain/Indicator: TA100, Metabolic Activation: NONE, Method: PREINCUBATION inactive; negative | Test System: AMES SALMONELLA TYPHIMURIUM, Strain/Indicator: TA100, Metabolic Activation: RAT, LIVER, S-9, AROCLOR 1254 (10 OR 30%), Method: PREINCUBATION inactive; negative | Test System: AMES SALMONELLA TYPHIMURIUM, Strain/Indicator: TA102, Metabolic Activation: HAMSTER, LIVER, S-9, PHENOBARBITAL AND BETA-NAPHTHOFLAVONE, Method: PREINCUBATION inactive; negative | Test System: AMES SALMONELLA TYPHIMURIUM, Strain/Indicator: TA102, Metabolic Activation: NONE, Method: PREINCUBATION inactive; negative | Test System: AMES SALMONELLA TYPHIMURIUM, Strain/Indicator: TA104, Metabolic Activation: HAMSTER, LIVER, S-9, PHENOBARBITAL AND BETA-NAPHTHOFLAVONE, Method: PREINCUBATION inactive; negative | Test System: AMES SALMONELLA TYPHIMURIUM, Strain/Indicator: TA104, Metabolic Activation: NONE, Method: PREINCUBATION inactive; negative | Test System: AMES SALMONELLA TYPHIMURIUM, Strain/Indicator: TA1535, Metabolic Activation: HAMSTER, LIVER, S-9, AROCLOR 1254 (10 OR 30%), Method: PREINCUBATION inactive; negative | Test System: AMES SALMONELLA TYPHIMURIUM, Strain/Indicator: TA1535, Metabolic Activation: HAMSTER, LIVER, S-9, PHENOBARBITAL AND BETA-NAPHTHOFLAVONE, Method: PREINCUBATION inactive; negative | Test System: AMES SALMONELLA TYPHIMURIUM, Strain/Indicator: TA1535, Metabolic Activation: NONE, Method: PREINCUBATION inactive; negative | Test System: AMES SALMONELLA TYPHIMURIUM, Strain/Indicator: TA1535, Metabolic Activation: RAT, LIVER, S-9, AROCLOR 1254 (10 OR 30%), Method: PREINCUBATION inactive; negative | Test System: AMES SALMONELLA TYPHIMURIUM, Strain/Indicator: TA1537, Metabolic Activation: HAMSTER, LIVER, S-9, PHENOBARBITAL AND BETA-NAPHTHOFLAVONE, Method: PREINCUBATION inactive; negative | Test System: AMES SALMONELLA TYPHIMURIUM, Strain/Indicator: TA1537, Metabolic Activation: NONE, Method: PREINCUBATION inactive; negative | Test System: E. COLI, Strain/Indicator: WP2UVRA/PKM101, Metabolic Activation: HAMSTER, LIVER, S-9, PHENOBARBITAL AND BETA-NAPHTHOFLAVONE, Method: PREINCUBATION inactive; negative | Test System: E. COLI, Strain/Indicator: WP2UVRA/PKM101, Metabolic Activation: NONE, Method: PREINCUBATION inactive; negative | Test System: E. COLI, Strain/Indicator: WP2UVRA, Metabolic Activation: HAMSTER, LIVER, S-9, PHENOBARBITAL AND BETA-NAPHTHOFLAVONE, Method: PREINCUBATION inactive; negative | Test System: E. COLI, Strain/Indicator: WP2UVRA, Metabolic Activation: NONE, Method: PREINCUBATION inactive; negative | Test System: UDS RODENT HEPATOCYTES, Strain/Indicator: THY INCORP (NON-S-PHASE), Metabolic Activation: NONE, Method: AUTORADIOGRAPHY inactive; negative
